Experimental data taken from patent US11147820B2, “Methods for treating GI tract disorders” (Neurogastrx, Inc., priority 2012, dated 2021).

Columns and labels:
[1] = system: cardiac action potentials; experiment: Canine cardiac action potentials by electrocardiography and telemetry; assay type: in vivo; conditions: dogs, oral gavage, post-dose period 1-6 hours, vs vehicle
Text: Anesthesia is introduced to dogs. Balanced gaseous anesthesia is used throughout the surgical procedure. Once anesthetized, animals are shaved and surgically scrubbed, encompassing surgical sites of the right inguinal area, chest and right lateral abdomen. Throughout the surgical procedure, animals are monitored for continuous assessment of vital signs. An incision is made along the right medial thigh and the femoral artery exposed by blunt dissection. Another incision is made in the lateral lumbar area cranial to the iliac crest for a tunneling needle to be passed subcutaneously from the incision on the medial thigh to the lumbar incision. A blood pressure catheter is passed through the needle from the lumbar incision and the needle removed. The femoral artery is ligated distally and incised to insert a catheter that is advanced until the tip resided in the femoral artery/abdominal aorta. The catheter is then secured by ligation. The incision in the lumbar area is enlarged and a subcutaneous pocket created in the left dorsal lumbar area to hold the transmitter body. The transmitter (e.g., Data Sciences International, St Paul, Minn., USA) is inserted into the subcutaneous pocket and secured body. Electrocardiography (ECG) leads are positioned. The incision is closed. Postoperative recovery lasts, e.g., about 2 weeks during which supplemental analgesics/antibiotics are administered as needed. Once the postoperative recovery period is complete, the animal is examined for study acceptability by the staff veterinarian and the implanted transmitter signal verified. […] ECGs, heart rate and arterial blood pressure data are recorded 1 hour prior to and then continuously for at least 6 hours following compound and/or vehicle administration. A blood sample for determination of compound plasma concentrations is collected from all subjects at approximately 6 h post-dose. […] Standard ECG intervals (PR, RR, QRS and QT) are automatically measured by the data acquisition system and reported as, e.g., 10 min averages. […] Dose-level averages (and accompanying standard deviation (s.d.) of these baseline-adjusted 10 min averages are calculated across study animals. ANOVA (e.g., repeated measures ANOVA) are applied to these baseline-adjusted averages. Pairwise t-tests are applied within the ANOVA to identify the presence of significant differences of the dose levels relative to vehicle. These t-tests are performed at a 0.05/2=0.025 significance level, so that the overall error rate across the comparisons in a given interval are not higher than 0.05. ECG interval data (reported at 30 min intervals) are analyzed using, e.g., repeated-measures ANOVA techniques similar to the systemic blood pressure and heart rate data described above.

gastric motility = experiment: Antral manometry in canines (gastric motility); assay type: in vivo; conditions: for motor dysfunction: canines
Experimental: Two healthy female hound dogs (24-28 kg) were involved in this study. Animals were fed an ad libitum chow diet (LabDiet®). After an overnight fast, the dogs were anesthetized with Pentothal (sodium thiopental, 11 mg/kg IV; Abbott Laboratories, North Chicago, Ill.) and maintained on 2-4% isoflurane (Abbott Laboratories) in oxygen (1 L/min) carrier gases delivered from a ventilator after endotracheal intubation. A cannula was placed in the jejunum 20 cm distal to the pylorus for the assessment of antral motility. Dogs were allowed to recover in their individual cages for 2 weeks. All experiments were performed after the dogs were completed recovered from the surgical procedure. The study was performed according to the National Institutes of Health Guidelines on the use of laboratory animals and approved by the Animal Care and Use Committee of the University of Texas Medical Branch at Galveston, Tex. To investigate the effect of the drugs on antral manometry, the study of each drug dose was done on three randomized sessions on separate days following the consumption of one can of solid dog food: 1) a Control session: In which animals received the vehicle only; 2) Dose I session: in which the lower dose of the drug was used; and 3) Dose II session: in which the higher dose of the drug was used (please refer to table for drug doses). Drug administration was performed according to Table 4, below. [table] Antral manometry was performed as follows. Following an overnight fast, an intraluminal water-perfused manometry catheter was inserted into the antrum through the jejunal cannula. Antral manometry recording was initiated after the consumption of one can of solid food and continued for 3 hours. The catheter contained 3 manometric sensors at a 1 cm interval. Dogs were given 10 minutes of accommodation, prior to the start of the recording. For data analysis, motility index (MI), defined as the integrated area (area under curve—AUC) between baseline and contractions per hour, was calculated. For statistical analysis, the Student's t-test was used for assessment of individual differences between groups (High dose, low dose of each drug) compared to control—Microsoft® Excel 2002). All values are expressed as mean±SEM.

gastric emptying = experiment: Gastric emptying in rodents, metopimazine; assay type: in vivo; conditions: preliminary
solid gastric emptying = experiment: Solid gastric emptying in rats, S-carbidopa; assay type: in vivo, Sprague-Dawley rats; conditions: 1 mg/kg, initial results
Experimental: Male Sprague-Dawley rats, purchased from the Charles River Lab, were housed in the animal facility of Veterans Research Education Foundation, which was maintained at 22˜24° C., 55% relative humidity, with an automatic 12 h light/dark cycle. The animals received a standard laboratory rat chow and tap water ad libitum. The rats were around 400 g at 14 weeks age when used in gastric emptying study.
S-Carbidopa was purchased from Sigma (#: C1335). Stock solution of S-Carbidopa was prepared at 5 mg/ml using DMSO as solvent. 80 μl stock solution was further diluted into 1 ml distilled water to make 0.4 mg/ml. The effect of S-Carbidopa (1 mg/kg) on solid gastric emptying was studied.
Male SD rats were involved in this study. Rats were fasted in cages with metal wired mesh for 24 hours with free access to water; S-carbidopa (1 mg/kg) was administered to the rats by oral gavage. Control rats were not administered S-carbidopa. 15 minutes following administration, rats were given access to 2 g of rat chow pellets for ten minutes. All rats completely ingested the chow within the 10 minute time frame. Rats were sacrificed by sodium pentobarbital (100 mg/kg) overdose 90 min after feeding. […] Solid gastric emptying was calculated according to the following formula: Gastric emptying (%)=[1−(dried gastric content in g)/2 g]×100. All values are expressed as mean±SEM. […]

SMILES | QTc intervals [1] | peripheral restriction (Peripheral restriction) | motor dysfunction (gastric motility) | also measured
CS(=O)(=O)c1ccc2c(c1)N(CCCN1CCC(C(=O)O)CC1)c1ccccc1S2 [Metopimazine acid] | no significant increases | peripherally restricted agents |  | 
CS(=O)(=O)c1ccc2c(c1)N(CCCN1CCC(C(N)=O)CC1)c1ccccc1S2 [Metopimazine, 1-[3-[2-(methylsulfonyl)-10H-phenothiazin-10-yl]propyl]-piperidine-4-carboxamide] | no significant increases | peripherally restricted agents | no motor dysfunction was observed | increase in gastric emptying as compared to vehicle control (gastric emptying; 3 mg/kg): about 40%; increase in gastric emptying as compared to vehicle control, overall effect (gastric emptying; pooling the 3 mg/kg and 10 mg/kg doses): about 20%
C[C@@](Cc1ccc(O)c(O)c1)(NN)C(=O)O [S-Carbidopa, (2S)-3-(3,4-dihydroxyphenyl)-2-hydrazino-2-methylpropanoic acid] | no significant increases |  | no motor dysfunction was observed | motility index (MI) (gastric motility; 1 mg/kg IV, 15 min prior to meal, all three channels, p=0.05): robustly increased MI; solid gastric emptying compared to control rats (solid gastric emptying): improves solid gastric emptying
CN(CCOc1ccc(NS(C)(=O)=O)cc1)CCc1ccc(NS(C)(=O)=O)cc1 [dofetilide] | increased |  |  | 
Cl.NCCc1ccc(O)c(O)c1 [dopamine hydrochloride] |  |  |  | motility index (MI) (gastric motility; 50 mg/canine IV, immediately before meal, all channels, p=0.06): decreased MI
